Measured values as given in patent publication US9066923B2, “Methods for Alzheimer's disease treatment and cognitive enhancement” (Blanchette Rockefeller Neurosciences Institute, priority 2002, dated 2015).

Tests used:
PKCα isozyme [1] = target: T1, PKCα isozyme (Homo sapiens, UniProt P17252); conditions: cited from earlier work
T1 construct: Fibroblasts were washed twice with ice-cold PBS, scraped in PBS, and collected by low-speed centrifugation; endogenous in cells; host or cells: cultured skin fibroblasts from Coriell Cell Repositories (AG07141, AG06241, AG06848)

PKCα isozyme [2] = target: T1, PKCα isozyme; test: PKC translocation to the cell membrane (immunoblot of cytosolic and membranous fractions of fibroblasts); assay type: cell-based
Description: (§1) Cultured skin fibroblasts were obtained from the Coriell Cell Repositories and grown using the general guidelines established for their culture with slight modifications (Cristofalo & Carptentier, 1988; Hirashima et al., 1996). The culture medium in which cells were grown was Dulbecco's modified Eagle's medium (GIBCO) supplemented with 10% calf serum (Biofluids, Inc.). Fibroblasts from control cell lines (AC), cases AG07141 and AG06241, and a familial AD (FAD) case (AG06848) were utilized.
Immunoblot experiments were conducted using well-established procedures (Dunbar, 1994). Cells were grown to confluency (˜90%) in 6 cm Petri dishes. […] Fibroblasts were washed twice with ice-cold PBS, scraped in PBS, and collected by low-speed centrifugation. The pellets were re-suspended in the following homogenization buffer: 20 mM Tris-HCl, pH 7.5, 2 mM EDTA, 2 mM EGTA, 5 mM DTT, 0.32 M sucrose, and protease inhibitor cocktail (Sigma). Hemogenates were obtained by sonication, and centrifuged at […] for 20 minutes, and the supernatants were used as the cytosolic fraction. The pellets were homogenized in the same buffer containing 1.0% Triton X-100, incubated in ice for 45 minutes, and centrifuged at ˜12,000 g for 20 minutes. The supernatant from this batch was used as the membranous fraction. After protein determination, 20 μg of protein were diluted in 2× electrophoresis sample buffer (Novex), boiled for 5 minutes, run on 10% acrylamide gel, and transferred electrophoretically to a PVDF membrane. The membrane was saturated with 5% milk blocker by incubating it at room temperature for an hour. The primary antibody for PKC isoform (Transduction Laboratories) was diluted (1:1000) in blocking solution and incubated with the membrane overnight at 4° C. After incubation with the secondary antibody, alkaline phosphatase anti-mouse IgG (Vector Laboratories), the membrane was developed using a chemoluminescent substrate (Vector Laboratories) per the manufacturer's instructions. The band intensities were quantified by densitometry using a BioRad GS-800 calibrated scanning densitometer and Multianalyst software (BioRad).

sAPPα secretion = sAPPα secretion in cultured human skin fibroblasts (immunoblot, antibody 6E10); assay type: cell-based
Description: as §1

rats = test: Morris Water Maze; assay type: in vivo, rat; conditions: intraventricular injection
Source text: (See, for example, Hollister, L. E., 1990, Pharmacopsychiat., 23, (Suppl II) 33-36). The available animal models of memory loss and impaired learning involve measuring the ability of animals to remember a discrete event. These tests include the Morris Water Maze and the passive avoidance procedure. In the Morris Water Maze, animals are allowed to swim in a tank divided into four quadrants, only one of which has a safety platform beneath the water. The platform is removed and the animals are tested for how long they search the correct quadrant verse the incorrect quadrants. In the passive avoidance procedure the animal remembers the distinctive environment in which a mild electric shock is delivered and avoids it on a second occasion. A variant of the passive avoidance procedure makes use of a rodent's preference for dark enclosed environments over light open ones. Further discussion can be found in Crawley, J. N., 1981, Pharmacol. Biochem. Behav., 15, 695-699; Costall, B. et al, 1987, Neuropharmacol., 26, 195-200; Costall, B. et al., 1989, Pharmacol. Biochem. Behav., 32, 777-785; Barnes, J. M. et al., 1989, Br. J. Pharmacol., 98 (Suppl) 693P; Barnes, J. M. et al. 1990, Pharmacol. Biochem. Behav., 35, 955-962.
In the present example, rats were injected intraventricularly with bryostatin-1 and trained for 4 days (following standard protocols). Retention was assessed on the 5th day. […] Acquisition of memory was measured as time spent in the relevant quadrant (5th day). […] (See, FIG. 4). Bryostatin is capable of being used at concentrations to improve cognition that are 300 to 300,000 times lower than the concentration used to treat tumors.

patients = conditions: cited from earlier work
tumor promotion = conditions: cited from earlier work
[3] = system: diacylglycerol-protein kinase C; conditions: aorta of diabetic rats and cultured rat smooth muscle cells exposed to elevated glucose (Kunisaki et al. 1994); cited from earlier work
[4] = system: patients suffering from moderately advanced Alzheimer's Disease; conditions: 2000 IU/day (Burke et al. 1999); cited from earlier work

Molecule	shape of the dose response curve as PKC activator (PKCα isozyme [1])	activation of PKC (immunoblot, FIG. 7) (PKCα isozyme [2]; 0.1 nM bryostatin-1, 30 minutes after delivery)	response demonstrating the activation of PKC (FIG. 7) (PKCα isozyme [2]; AD cells, FIG. 7)	time of maximal PKC translocation to the cell membrane (PKC activation) (PKCα isozyme [2]; bryostatin)	PKC translocation after the maximum, compared with basal level (PKCα isozyme [2]; partial decline after 30 min, followed up to six hours)	sAPP secretion (sAPPα secretion; 0.1 nM bryostatin-1, compared to vehicle alone and benzolactam)	sAPPα secretion, efficacy compared with controls and Benzolactam (FIG. 1) (sAPPα secretion; FIG. 1)	sAPP secretion (sAPPα secretion; bryostatin at 0.01 nM)	memory or retention: time spent in the relevant quadrant (rats; 5th day, versus sham injection)	time to improved cognition compared to control rats (rats; FIG. 4)	learning: escape latency from trial to trial (rats; trained for 4 days, versus sham injection)	tolerability (patients; 20 μg/m^2 once per week for 3 weeks (Weitman et al. 1999))	maximum-tolerated dose (patients; 1 hour i.v. infusion once every 2 weeks for 6 weeks (Prendville et al. 1993))	maximum tolerated dose (patients; once per week for 8 weeks (Jayson et al. 1995))	tumor promotion activity (tumor promotion)	diacylglycerol-protein kinase C activation [3]	cognitive abilities [4]	mortality and morbidity [4]
CCC/C=C/C=C/C(=O)O[C@H]1/C(=C/C(=O)OC)C[C@H]2C[C@H]([C@@H](C)O)OC(=O)C[C@H](O)C[C@@H]3C[C@H](OC(C)=O)C(C)(C)[C@](O)(C[C@@H]4C/C(=C/C(=O)OC)C[C@H](/C=C/C(C)(C)[C@]1(O)O2)O4)O3 [bryostatin-1]	biphasic	easily detectable	powerful response	30 min	remains higher than basal translocation levels up to six hours	dramatic increase of sAPP secretion	greater efficacy at lower concentrations than controls and Benzolactam	still proved effective to increase sAPP secretion	significantly enhanced	≤ 2 days	significantly lower	well tolerated and were not associated with myalgia or other side effects	50 μg/m^2	25 μg/m^2	devoid of tumor promotion activity			
vitamin E																normalize diacylglycerol-protein kinase C activation	did not enhance cognitive abilities	reduced mortality and morbidity
